Measurements as given in article PMC8534029 (Cells, 2021).

Target: T1, human DOR (T7-tagged, HEK293 cells) (Homo sapiens, UniProt P41143)
T1 construct: gene OPRD1
Experiment: CellKey impedance assay, agonist
Type: cell-based
Conditions: morphine up to 10^−5 M, no OT, partial agonist, EC50 n.d.

T1 sequence (P41143 whole entry, looked up): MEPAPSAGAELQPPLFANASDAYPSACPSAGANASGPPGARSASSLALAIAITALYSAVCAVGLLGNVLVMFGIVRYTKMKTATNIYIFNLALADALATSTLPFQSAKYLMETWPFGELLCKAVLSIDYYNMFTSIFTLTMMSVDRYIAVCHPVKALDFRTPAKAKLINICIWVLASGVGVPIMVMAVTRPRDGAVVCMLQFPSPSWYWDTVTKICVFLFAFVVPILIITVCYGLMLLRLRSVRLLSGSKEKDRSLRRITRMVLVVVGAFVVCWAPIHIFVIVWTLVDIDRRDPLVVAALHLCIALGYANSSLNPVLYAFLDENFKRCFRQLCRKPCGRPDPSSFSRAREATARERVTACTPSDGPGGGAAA

CN1CC[C@]23c4c5ccc(O)c4O[C@H]2[C@@H](O)C=C[C@H]3[C@H]1C5 [morphine]
maximum response (% of SNC80 Emax): 50.6 ± 7.01%
